Source: US11325937B2, “Glycoside compound and preparation method therefor, composition, application, and intermediate” (SHANGHAI HUTCHISON PHARMACEUTICALS LIMITED, priority 2018, dated 2022)

Key:
[1] = tested on: HUVEC-12 endothelial cells; test: Proliferation of HUVEC-12 endothelial cells (MTT); format: cell-based, Human; conditions: HUVEC-12 treated with supernatant of macrophages co-incubated 24 h with compound, 10 μM (s- groups)
Description: The experiment included seven groups. In Group 1, HUVEC-12 endothelial cells (purchased from Shanghai RongChuang Biotech Co., Ltd.) were treated directly with simple DMEM medium (Gibcol, Shanghai) containing 10% FBS ([…], Germany) (control). In Group 2, the endothelial cells were treated with the supernatant obtained 24 h after macrophages were cultured with DMEM medium containing 10% FBS (s-control). […] In Group 5, the endothelial cells cultured with DMEM medium containing 10% FBS were treated directly with Cpd-18 (Salvianolate) (cpd-18, 10 μM). In Group 6, the endothelial cells were treated with the supernatant obtained after macrophages cultured with DMEM medium containing 10% FBS were treated and co-incubated with Cpd-18 (Salvianolate, 10 μM) for 24 h (s-cpd18). In Group 7, the endothelial cells cultured with DMEM medium containing 10% FBS were treated directly with VEGFD (Recombinant Human VEGF165, 10 ng/mL). Human umbilical vein endothelial cells HUVEC-12 in logarithmic growth phase were counted, adjusted to a cell density of 2.5×10^4 cells/mL, and inoculated in 100 μL per well in a 96-well plate. […] Based on the measured absorbance (OD), the HUVEC-12 endothelial cells treated directly with simple DMEM medium (control) were used as a blank control (Group 1), the percentage of cell proliferation in each group was calculated, and compared. […]

[2] = Acute toxicity test of TG-028; format: in vivo
Description: In addition, an acute toxicity test of TG-028 was conducted.

[3] = tested on: HUVEC-12 endothelial cells; test: Tubule formation of HUVEC-12 endothelial cells (Matrigel); format: cell-based, Human
Description: The experiment included seven groups. In Group 1, HUVEC-12 endothelial cells (purchased from Shanghai RongChuang Biotech Co., Ltd.) were treated directly with simple DMEM medium (Gibcol, Shanghai) containing 10% FBS (SERANA, Germany) (control). In Group 2, the endothelial cells were treated with the supernatant obtained 24 h after macrophages were cultured with DMEM medium containing 10% FBS (s-control). In Group 3, the endothelial cells cultured with DMEM medium containing 10% FBS were treated directly with TG-028 (TG-028, 10 μM). In Group 4, the endothelial cells were treated with the supernatant obtained after macrophages cultured with DMEM medium containing 10% FBS were treated and co-incubated with TG-028 for 24 h (s-TG-028, […]). In Group 5, the endothelial cells cultured with DMEM medium containing 10% FBS were treated directly with Cpd-18 (Salvianolate) (cpd-18, 10 μM). In Group 6, the endothelial cells were treated with the supernatant obtained after macrophages cultured with DMEM medium containing 10% FBS were treated and co-incubated with Cpd-18 (Salvianolate, 10 μM) for 24 h (s-cpd18). In Group 7, the endothelial cells cultured with DMEM medium containing 10% FBS were treated directly with VEGFD (Recombinant Human VEGF165, 10 ng/mL).
A 96-well plate and sterile yellow pipette tip were stored overnight in a refrigerator at −20° C. The packed Matrigel was thawed overnight in a refrigerator at 4° C. before the experiment. On the following day, the Matrigel thawed was centrifuged for a few minutes. 60 μL per well of the pre-cooled Matrigel was added to a 96-well plate in an ice bath on a ultra-clean bench, and then allowed to stand in an incubator for 1 h. After Matrigel was solidified, HUVEC-12 cells in logarithmic growth phase were taken and adjusted for the cell density. The cells were well mixed with each group of medium at a density of 5×10^4 cells/well and inoculated into a 96-well plate. […] The tube-like structure was analyzed by ImageJ image-analysis software, and the tube formation ability was evaluated using number of master junction as a quantitative index.

COc1ccc(CCCCO[C@@H]2O[C@H](CO)[C@@H](O)[C@H](O)[C@H]2O)cc1 [TG-028]
promotion of proliferation of endothelial cells (in words) [1]: more potent promotion on the proliferation of endothelial cells than the direct treatment of endothelial cells with VEGF
therapeutic index LD50/ED50 ([2]; 616.59/2.61): 236
LD50 ([2]; in vivo, acute toxicity test): 617 mg/kg
effect on tube formation of endothelial cells (in words) ([3]; HUVEC-12 treated with supernatant of macrophages co-incubated 24 h with compound, 10 μM (s- groups)): comparable effect on the tube formation of endothelial cells as VEGF
effect on tube formation of endothelial cells (in words) ([3]; direct treatment of HUVEC-12, 3 h, compounds 10 μM, VEGF165 10 ng/mL, vs control medium): significant effect on the tube formation of endothelial cells
